What is called Ki is a measure of affinity in units of concentration, obtained from inhibition or displacement.

Assay [1] addresses T1, human adenosine A2a receptor (Homo sapiens, UniProt P29274).
T1 construct: expressed in transfected cells; host or cells: CHO cells, semliki forest virus expression system; membrane preparation
The assay can be described thus: Human adenosine A2a receptor radioligand binding assay ([125I]-AB-MECA, CHO cell membranes). Particulars: for Selectivity A1/A2a: ratio obtained by dividing KiHA1 by KiHA2A; for Ki: recombinant human A2a receptor expressed in CHO cells, Ki from IC50 by Cheng-Prussoff equation, read-out: hA2a Ki. How it is done: Human Adenosine A2a Receptor
The gene encoding human adenosine A2a receptor was recombinantly introduced and expressed in chinese hamster ovary (CHO) cells using the semliki forest virus expression system. Cells were harvested, washed twice by centrifugation, homogenized and again washed by centrifugation. The final washed membrane pellet was suspended in a Tris (50 mM) buffer containing 120 mM NaCl, 5 mM KCl, 2 mM CaCl2 and 10 mM MgCl2 (pH 7.4) (buffer A). The [^125I]-AB-MECA ([N(6)-(4-amino-3-iodobenzyl)-5′-N-methylcarbamoyl-adenosine]; 0.05 nM) binding assay was carried out in 96-well a plates in the presence of 20 μg of membrane protein and 0.1 U adenosine deaminase in a final volume of […] of buffer A. Non-specific binding was defined using xanthine amine congener (XAC; 2 μM). Compounds were tested at 10 concentrations from 10 μM-0.3 nM. All assays were conducted in duplicate and repeated at least two times. Assay plates were incubated for 1 hour at room temperature before filtration through Whatman Unifilter GF/C 96-well filter plates (preincubated with 0.3% polyethyleneimine). Filters were washed 3 times with 0.3 ml of cold (4° C.) Tris (50 mM)—NaC […]
[…] 1 (120 mM) buffer (pH 7.4). Microscint 40 scintillation fluid (50 μl) was added to each well and the wells sealed. After gentle shaking for 20 min, plates were counted on a Packard Topcount scintillation counter. IC50 values were calculated using a non-linear curve fitting program and Ki values calculated using the Cheng-Prussoff equation.
(§1) In accordance with the invention, it has been shown that compounds of formula I have a high affinity toward the A2A receptor. In Table I below specific values of prepared compounds are described, Values of KiHA2A and KiHA1 are shown in Table I for compounds of formula 1. A low Ki value is indicative of a particular compound's high affinity toward a particular receptor and conversely a higher Ki value is indicative of a lower affinity for that compound toward a particular receptor. […] Generally speaking, compounds that have a higher HA1/HA2A ratio are able to give a substantially complete blockade of the HA2A receptor without substantially affecting the A1 receptor.

For assay [2], the target named is T2, human adenosine A1 receptor (Homo sapiens, UniProt P30542).
T2 construct: expressed in transfected cells; host or cells: CHO cells, semliki forest virus expression system; membrane preparation
T2 sequence (P30542 1-326): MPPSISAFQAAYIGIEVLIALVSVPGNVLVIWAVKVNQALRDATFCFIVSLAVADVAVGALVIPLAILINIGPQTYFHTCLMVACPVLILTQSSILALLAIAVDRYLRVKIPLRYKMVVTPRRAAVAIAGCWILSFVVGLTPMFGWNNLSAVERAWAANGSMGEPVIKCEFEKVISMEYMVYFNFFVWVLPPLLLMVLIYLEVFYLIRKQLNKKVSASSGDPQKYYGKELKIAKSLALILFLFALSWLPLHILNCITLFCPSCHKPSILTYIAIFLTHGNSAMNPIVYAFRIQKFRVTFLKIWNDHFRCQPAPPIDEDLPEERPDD
Briefly: Human adenosine A1 receptor radioligand binding assay ([3H]-DPCPX, SPA, CHO cell membranes). Particulars: recombinant human A1 receptor expressed in CHO cells; [3H]-DPCPX 0.6 nM; Ki from IC50 by Cheng-Prussoff equation; read-out: hA1 Ki. How it is done:
Human Adenosine A^1 Receptor
The gene encoding human adenosinie A1 receptor was recombinantly introduced and expressed in chinese hamster ovary (CHO) cells using the semliki forest virus expression system. Cells were harvested, washed twice by centrifugation, homogenized and again washed by centrifugation. The final washed membrane pellet was suspended in a Tris (50 mM) buffer containing 120 mM NaCl, 5 mM KCl, 2 mM CaCl2 and 10 mM MgCl2 (pH 7.4) (buffer A). The [^3H]-DPCPX (([propyl-3H]8-cyclopentyl-1,3-dipropyxanthine); 0.6 nM) binding assay was carried out in 96-well plates in the presence of 2.5 μg of membrane protein, 0.5 mg of Ysi-poly-1-lysine SPA beads and 0.1 U adenosine deaminase in a final volume of 200 μl of buffer A. Non-specific binding was defined using xanthine amine congener (XAC; 2 μM). Compounds were tested at 10 concentrations from 10 μM-0.3 nM. All assays were conducted in duplicate and repeated at least two times. Assay plates were incubated for 1 hour at room temperature before centrifugation and then bound ligand determined using a Packard Topcount scintillation counter. IC50 values were calculated using a non-linear curve fitting program and Ki values calculated using the Cheng-Prussoff equation.
as §1

T1 sequence (P29274 whole entry): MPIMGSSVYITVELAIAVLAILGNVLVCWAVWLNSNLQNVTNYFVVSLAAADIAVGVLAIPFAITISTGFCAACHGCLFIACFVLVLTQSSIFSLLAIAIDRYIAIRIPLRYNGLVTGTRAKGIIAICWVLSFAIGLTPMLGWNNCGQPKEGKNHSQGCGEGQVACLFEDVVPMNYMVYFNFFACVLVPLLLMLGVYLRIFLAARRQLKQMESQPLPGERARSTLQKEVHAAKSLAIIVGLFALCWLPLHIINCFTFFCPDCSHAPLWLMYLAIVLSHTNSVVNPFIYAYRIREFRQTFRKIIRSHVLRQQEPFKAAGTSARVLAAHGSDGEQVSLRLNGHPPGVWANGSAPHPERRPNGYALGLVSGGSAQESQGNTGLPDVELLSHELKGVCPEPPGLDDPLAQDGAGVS

On to `COc1ccc(-c2cccs2)n2nc(NC(=O)c3ccc(Cl)cc3)nc12` [Example 15, 4-Chloro-N-(8-methoxy-5-thiophen-2-yl-[1,2,4]triazolo[1,5-a]pyridin-2-yl)-benzamide], for which, in assay [1], the “Selectivity A1/A2a” value was determined as 25.6 and the Ki is 114 nM. For the same compound, in assay [2], the Ki was 2910 nM.

Consider `COc1ccc(-c2ccccc2)n2nc(NC(=O)c3cccc(Cl)c3)nc12` [Example 6, 3-Chloro-N-(8-methoxy-5-phenyl-[1,2,4]triazolo[1,5-a]pyridin-2-yl)-benzamide], for which the “Selectivity A1/A2a” value in assay [1] came out at 15.8. Besides, the Ki was found to be 181 nM in assay [1] and 2870 nM in assay [2].

`CCc1ccc(C(=O)Nc2nc3c(OC)ccc(-c4cccs4)n3n2)cc1` [Example 18, 4-Ethyl-N-(8-methoxy-5-thiophen-2-yl-[1,2,4]triazolo[1,5-a]pyridin-2-yl)-benzamide]: in assay [1], the “Selectivity A1/A2a” value is recorded as 24.2. For the same compound, the Ki was 136 nM in assay [1] and 3300 nM in assay [2].

As for `COc1ccc(-c2cccs2)n2nc(NC(=O)c3cccc(Cl)c3)nc12` [Example 14, 3-Chloro-N-(8-methoxy-5-thiophen-2-yl-[1,2,4]triazolo[1,5-a]pyridin-2-yl)-benzamide], in assay [1], the “Selectivity A1/A2a” value is 17.4 and the Ki was 142 nM. In addition, the Ki in assay [2] was determined as 2480 nM.

Regarding `CCOc1cccc(-c2ccc(OC)c3nc(NC(=O)c4ccc(C)s4)nn23)c1` [Example 30, 5-Methyl-thiophene-2-carboxylic acid [5-(3-ethoxy-phenyl)-8-methoxy-[1,2,4]triazolo[1,5-a]pyridin-2-yl]-amide], in assay [1], the “Selectivity A1/A2a” value came out at 18.6 and the Ki is 72.9 nM. Also, the Ki in assay [2] is 1360 nM.

Regarding `COc1ccc(-c2ccccc2F)n2nc(NC(=O)c3ccc(F)cc3)nc12` [Example 32, 4-Fluoro-N-[5-(2-fluorophenyl)-8-methoxy-[1,2,4]triazolo[1,5-a]pyridin-2-yl]-benzamide], in assay [1], the “Selectivity A1/A2a” value came out at 24.6 and the Ki came to 229 nM. Besides, the Ki in assay [2] was 5640 nM.

In the case of `COc1ccc(-c2cccs2)n2nc(NC(=O)c3ccccc3)nc12` [Example 12, N-(8-Methoxy-5-thiophen-2-yl-[1,2,4]triazolo[1,5-a]pyridin-2-yl)-benzamide], the “Selectivity A1/A2a” value in assay [1] came to 19.3. Besides, the inhibition constant Ki in assay [1] worked out at 112 nM; in assay [2] it was 2150 nM.

`COc1ccc(C(=O)Nc2nc3c(OC)ccc(-c4cccs4)n3n2)cc1` [Example 16, 4-Methoxy-N-(8-methoxy-5-thiophen-2-yl-[1,2,4]triazolo[1,5-a]pyridin-2-yl)-benzamide]: in assay [1], the “Selectivity A1/A2a” value came to 14.2 and the Ki was 238 nM. Further, in assay [2], the Ki was found to be 3380 nM.
